These results are taken from PubChem BioAssay AID1745844 (Carcinogenic Potency Database (CPDB), 2022).

A word on the TD50: it is the 50% point of the dose-response relation for the toxic effect studied.

The subject of the data set is rodent lifetime carcinogenesis bioassay, tumor incidence TD50. As to the kind of experiment: chronic cancer bioassays in animals – CPDB, compiled studies (AID 1745844).

Each structure is given as a SMILES string. Calls of active or inactive are those of the source. The rule behind the calls is not given here.

Turning to `CC(O)CN(C)c1ccc(NN)nn1` (stereo unspecified), the TD50 is, setting by setting: (mouse, strain B6C3F1, females, in drinking water, site: liver, lesion: several types, types named in the paper, dosed 80 weeks, study length 123 weeks) 503 mg/kg/day (inactive); (mouse, strain B6C3F1, males, in drinking water, site: liver, lesion: several types, types named in the paper, dosed 80 weeks, study length 123 weeks) 922 mg/kg/day (inactive); (mouse, strain BALB/cLacDp, females, in drinking water, site: all sites, lesion: lymphoma, dosed 80 weeks, study length 123 weeks) 408 mg/kg/day (inactive). Further, the carcinogen call (mouse, strain B6C3F1, females, in drinking water, site: lung, lesion: several types, types named in the paper, dosed 80 weeks, study length 123 weeks) is “negative (inactive)”; the carcinogen call (mouse, strain B6C3F1, males, in drinking water, site: lung, lesion: several types, types named in the paper, dosed 80 weeks, study length 123 weeks) was “negative (inactive)”; the carcinogen call (mouse, strain BALB/cLacDp, females, in drinking water, site: liver, lesion: hepatocellular adenoma, dosed 80 weeks, study length 123 weeks) is “negative (inactive)”; the carcinogen call (mouse, strain BALB/cLacDp, females, in drinking water, site: lung, lesion: several types, types named in the paper, dosed 80 weeks, study length 123 weeks) was “negative (inactive)”.

Take `c1ccc2sc(SNC3CCCCC3)nc2c1`: the carcinogen call (mouse, strain B6AKF1, females, oral dosing, site: any site (literature study), lesion: several types, types named in the paper, dosed 76 weeks, study length 76 weeks) was “negative (inactive)”; the carcinogen call (mouse, strain B6AKF1, females, oral dosing, site: liver, lesion: hepatoma, dosed 76 weeks, study length 76 weeks) is “negative (inactive)”; the carcinogen call (mouse, strain B6AKF1, females, oral dosing, site: lung, lesion: adenoma, dosed 76 weeks, study length 76 weeks) was “negative (inactive)”; the carcinogen call (mouse, strain B6AKF1, males, oral dosing, site: any site (literature study), lesion: several types, types named in the paper, dosed 76 weeks, study length 76 weeks) is “negative (inactive)”; the carcinogen call (mouse, strain B6AKF1, males, oral dosing, site: liver, lesion: hepatoma, dosed 76 weeks, study length 76 weeks) was “negative (inactive)”; the carcinogen call (mouse, strain B6AKF1, males, oral dosing, site: lung, lesion: adenoma, dosed 76 weeks, study length 76 weeks) is “negative (inactive)”. Further, the carcinogen call is, setting by setting: (mouse, strain B6C3F1, females, oral dosing, site: liver, lesion: hepatoma, dosed 76 weeks, study length 76 weeks) “negative (inactive)”; (mouse, strain B6C3F1, females, oral dosing, site: lung, lesion: several types, types named in the paper, dosed 76 weeks, study length 76 weeks) “negative (inactive)”. The TD50 runs as follows: (mouse, strain B6C3F1, females, oral dosing, site: any site (literature study), lesion: several types, types named in the paper, dosed 76 weeks, study length 76 weeks) 243 mg/kg/day (inactive); (mouse, strain B6C3F1, males, oral dosing, site: any site (literature study), lesion: several types, types named in the paper, dosed 76 weeks, study length 76 weeks) 50.8 mg/kg/day (inactive); (mouse, strain B6C3F1, males, oral dosing, site: liver, lesion: hepatoma, dosed 76 weeks, study length 76 weeks) 92.7 mg/kg/day (inactive); (mouse, strain B6C3F1, males, oral dosing, site: lung, lesion: adenoma, dosed 76 weeks, study length 76 weeks) 532 mg/kg/day (inactive).

On to `CCSC[C@H](N)C(=O)O`, for which the TD50 (rat, strain Wistar, males, in feed, site: abdomen, lesion: liposarcoma, dosed 58 weeks, study length 89 weeks) was 3630 mg/kg/day (inactive) and the TD50 (rat, strain Wistar, males, in feed, site: any site (literature study), lesion: several types, types named in the paper, dosed 58 weeks, study length 89 weeks) is 3630 mg/kg/day (inactive). The carcinogen call (rat, strain Wistar, males, in feed, site: liver, lesion: one or several types, types not named, dosed 58 weeks, study length 89 weeks) is “negative (inactive)”.

In the case of `CN1CCCC1=O`, the TD50 (mouse, strain B6C3F1, females, in feed, site: any site (literature study), lesion: benign tumor, dosed 78 weeks, study length 78 weeks) amounted to 3440 mg/kg/day; the TD50 (mouse, strain B6C3F1, females, in feed, site: any site (literature study), lesion: malignant tumor, dosed 78 weeks, study length 78 weeks) was 14900 mg/kg/day; the TD50 (mouse, strain B6C3F1, females, in feed, site: liver, lesion: hepatocellular adenoma, dosed 78 weeks, study length 78 weeks) was 3320 mg/kg/day; the TD50 (mouse, strain B6C3F1, females, in feed, site: liver, lesion: hepatocellular carcinoma, dosed 78 weeks, study length 78 weeks) is 7330 mg/kg/day; the TD50 (mouse, strain B6C3F1, males, in feed, site: any site (literature study), lesion: benign tumor, dosed 78 weeks, study length 78 weeks) is 1630 mg/kg/day; the TD50 (mouse, strain B6C3F1, males, in feed, site: any site (literature study), lesion: malignant tumor, dosed 78 weeks, study length 78 weeks) stood at 2270 mg/kg/day. For the same compound, the TD50 by setting is: (mouse, strain B6C3F1, males, in feed, site: liver, lesion: hepatocellular adenoma, dosed 78 weeks, study length 78 weeks) 1760 mg/kg/day; (mouse, strain B6C3F1, males, in feed, site: liver, lesion: hepatocellular carcinoma, dosed 78 weeks, study length 78 weeks) 1480 mg/kg/day; (mouse, strain B6C3F1, males, in feed, site: lung, lesion: adenoma, dosed 78 weeks, study length 78 weeks) 4080 mg/kg/day; (rat, strain Charles River CD (Sprague-Dawley), males, in feed, site: any site (literature study), lesion: several types, types named in the paper, dosed 104 weeks, study length 104 weeks) 6060 mg/kg/day (inactive); (rat, strain Charles River CD (Sprague-Dawley), males, in feed, site: liver, lesion: several types, types named in the paper, dosed 104 weeks, study length 104 weeks) 58500 mg/kg/day (inactive). Moreover, the carcinogen call reads like this: (rat, strain Charles River CD (Sprague-Dawley), females, in feed, site: any site (literature study), lesion: several types, types named in the paper, dosed 104 weeks, study length 104 weeks) “negative (inactive)”; (rat, strain Charles River CD (Sprague-Dawley), females, in feed, site: liver, lesion: several types, types named in the paper, dosed 104 weeks, study length 104 weeks) “negative (inactive)”; (rat, strain Charles River CD (Sprague-Dawley), females, inhaled, site: liver, lesion: one or several types, types not named, dosed 104 weeks, study length 104 weeks) “negative (inactive)”; (rat, strain Charles River CD (Sprague-Dawley), males, inhaled, site: liver, lesion: one or several types, types not named, dosed 104 weeks, study length 104 weeks) “negative (inactive)”.

Take `O=CCCCC=O`: the TD50 reads like this: (mouse, strain B6C3F1, females, inhaled, site: any site (literature study), lesion: several types, types named in the paper, dosed 104 weeks, study length 105 weeks) 3.08 mg/kg/day (inactive); (mouse, strain B6C3F1, females, inhaled, site: lung, lesion: adenocarcinoma, dosed 52 weeks, study length 52 weeks) 0.54 mg/kg/day (inactive); (mouse, strain B6C3F1, females, inhaled, site: lung, lesion: adenocarcinoma, dosed 78 weeks, study length 78 weeks) 0.347 mg/kg/day (inactive); (mouse, strain B6C3F1, females, inhaled, site: lung, lesion: alveolar/bronchiolar adenoma + alveolar/bronchiolar carcinoma, dosed 104 weeks, study length 105 weeks) 17.4 mg/kg/day; (mouse, strain B6C3F1, males, inhaled, site: lung, lesion: adenocarcinoma, dosed 78 weeks, study length 78 weeks) 1.14 mg/kg/day (inactive); (rat, strain Fischer 344, females, inhaled, site: any site (literature study), lesion: several types, types named in the paper, dosed 104 weeks, study length 104 weeks) 0.125 mg/kg/day (inactive). Besides, the TD50 (rat, strain Fischer 344, males, inhaled, site: any site (literature study), lesion: several types, types named in the paper, dosed 104 weeks, study length 104 weeks) was 0.239 mg/kg/day (inactive). Besides, the carcinogen call is, setting by setting: (mouse, strain B6C3F1, females, inhaled, site: liver, lesion: one or several types, types not named, dosed 52 weeks, study length 52 weeks) “negative (inactive)”; (mouse, strain B6C3F1, females, inhaled, site: liver, lesion: one or several types, types not named, dosed 78 weeks, study length 78 weeks) “negative (inactive)”; (mouse, strain B6C3F1, males, inhaled, site: any site (literature study), lesion: several types, types named in the paper, dosed 104 weeks, study length 104 weeks) “negative (inactive)”; (mouse, strain B6C3F1, males, inhaled, site: liver, lesion: hepatocellular carcinoma, dosed 52 weeks, study length 52 weeks) “negative (inactive)”; (mouse, strain B6C3F1, males, inhaled, site: liver, lesion: hepatocellular carcinoma, dosed 78 weeks, study length 78 weeks) “negative (inactive)”; (mouse, strain B6C3F1, males, inhaled, site: lung, lesion: adenocarcinoma, dosed 52 weeks, study length 52 weeks) “negative (inactive)”.

For the compound `O=S(=O)([O-])[O-].[Cd+2]`, the carcinogen call is “negative (inactive)” (hamster, strain Syrian Golden, females, inhaled, site: lung, lesion: one or several types, types not named, dosed 61 weeks, study length 76 weeks); “negative (inactive)” (hamster, strain Syrian Golden, females, inhaled, site: lung, lesion: one or several types, types not named, dosed 64 weeks, study length 77 weeks); “negative (inactive)” (hamster, strain Syrian Golden, males, inhaled, site: lung, lesion: one or several types, types not named, dosed 61 weeks, study length 103 weeks); “negative (inactive)” (hamster, strain Syrian Golden, males, inhaled, site: lung, lesion: one or several types, types not named, dosed 64 weeks, study length 113 weeks); “negative (inactive)” (mouse, strain NMRI, females, inhaled, site: lung, lesion: adenocarcinoma, dosed 69 weeks, study length 94 weeks); “negative (inactive)” (mouse, strain NMRI, females, inhaled, site: lung, lesion: adenoma, dosed 42 weeks, study length 96 weeks). Further, the carcinogen call is, setting by setting: (mouse, strain NMRI, females, inhaled, site: lung, lesion: adenoma, dosed 69 weeks, study length 94 weeks) “negative (inactive)”; (mouse, strain NMRI, females, inhaled, site: lung, lesion: several types, types named in the paper, dosed 42 weeks, study length 96 weeks) “negative (inactive)”; (mouse, strain NMRI, females, inhaled, site: lung, lesion: several types, types named in the paper, dosed 69 weeks, study length 94 weeks) “negative (inactive)”. For the same compound, the TD50 reads like this: (mouse, strain NMRI, females, inhaled, site: lung, lesion: adenocarcinoma, dosed 42 weeks, study length 96 weeks) 0.829 mg/kg/day (inactive); (rat, strain Wistar, females, inhaled, site: lung, lesion: adenocarcinoma, dosed 78 weeks, study length 126 weeks) 0.112 mg/kg/day; (rat, strain Wistar, females, inhaled, site: lung, lesion: adenosquamous carcinoma, dosed 78 weeks, study length 126 weeks) 0.112 mg/kg/day; (rat, strain Wistar, females, inhaled, site: lung, lesion: alveolar/bronchiolar adenoma, dosed 78 weeks, study length 126 weeks) 0.18 mg/kg/day; (rat, strain Wistar, females, inhaled, site: lung, lesion: several types, types named in the paper, dosed 78 weeks, study length 126 weeks) 0.0174 mg/kg/day; (rat, strain Wistar, females, inhaled, site: lung, lesion: squamous-cell tumor, dosed 78 weeks, study length 126 weeks) 0.381 mg/kg/day. The TD50 was 0.0537 mg/kg/day (rat, strain Wistar, males, inhaled, site: lung, lesion: adenocarcinoma, dosed 60 weeks, study length 134 weeks); 0.219 mg/kg/day (rat, strain Wistar, males, inhaled, site: lung, lesion: adenosquamous carcinoma, dosed 60 weeks, study length 134 weeks); 0.219 mg/kg/day (rat, strain Wistar, males, inhaled, site: lung, lesion: alveolar/bronchiolar adenoma, dosed 60 weeks, study length 134 weeks); 0.0289 mg/kg/day (rat, strain Wistar, males, inhaled, site: lung, lesion: several types, types named in the paper, dosed 60 weeks, study length 134 weeks).

Take `Cc1ccc(-c2cc(C(F)(F)F)nn2-c2ccc(S(N)(=O)=O)cc2)cc1`: the carcinogen call (rat, strain Fischer 344, males, in feed, site: colon, lesion: one or several types, types not named, dosed 53 weeks, study length 53 weeks) was “negative (inactive)”.

For the compound `CCCCN(N=O)C(=N)N[N+](=O)[O-]`, the carcinogen call (rat, strain Wistar, males, in drinking water, site: stomach, glandular, lesion: one or several types, types not named, dosed 52 weeks, study length 78 weeks) is “negative (inactive)”.
